# From PubChem BioAssay (NCI)
#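 Five concentrations, 48 hours, 96-well plates. The concentration for full growth arrest is given as TGI.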
# What was measured:
# Test in all cases: NCI anticancer screen, dose series, 48 h
# CCRF-CEM leukemia = tested on: CCRF-CEM leukemia
# HOP-62 NSCLC = tested on: HOP-62 NSCLC
# NCI-H226 lung = tested on: NCI-H226 lung
# HCT-15 colon = tested on: HCT-15 colon
# LOX IMVI melanoma = tested on: LOX IMVI melanoma
# SF-295 CNS = tested on: SF-295 CNS
# HCC-2998 colon = tested on: HCC-2998 colon
# OVCAR-4 ovarian = tested on: OVCAR-4 ovarian
# COLO 205 colon = tested on: COLO 205 colon
# OVCAR-3 ovarian = tested on: OVCAR-3 ovarian
# SF-268 CNS = tested on: SF-268 CNS
# SK-MEL-2 melanoma = tested on: SK-MEL-2 melanoma
# HT29 colon = tested on: HT29 colon
# MALME-3M melanoma = tested on: MALME-3M melanoma
# HOP-92 NSCLC = tested on: HOP-92 NSCLC
# OVCAR-5 ovarian = tested on: OVCAR-5 ovarian
# CAKI-1 renal = tested on: CAKI-1 renal
# SNB-19 CNS = tested on: SNB-19 CNS
# TK-10 renal = tested on: TK-10 renal
# RPMI-8226 leukemia = tested on: RPMI-8226 leukemia
Structure (SMILES),TGI (CCRF-CEM leukemia) [µM],TGI (HOP-62 NSCLC) [µM],TGI (NCI-H226 lung) [µM],TGI (HCT-15 colon) [µM],TGI (LOX IMVI melanoma) [µM],TGI (SF-295 CNS) [µM],TGI (HCC-2998 colon) [µM],TGI (OVCAR-4 ovarian) [µM],TGI (COLO 205 colon) [µM],TGI (OVCAR-3 ovarian) [µM],TGI (SF-268 CNS) [µM],TGI (SK-MEL-2 melanoma) [µM],TGI (HT29 colon) [µM],TGI (MALME-3M melanoma) [µM],TGI (HOP-92 NSCLC) [µM],TGI (OVCAR-5 ovarian) [µM],TGI (CAKI-1 renal) [µM],TGI (SNB-19 CNS) [µM],TGI (TK-10 renal) [µM],TGI (RPMI-8226 leukemia) [µM]
O=[N+]([O-])c1ccc(NNN=Nc2ccc(-c3nc4ccccc4s3)cc2)c([N+](=O)[O-])c1,> 100,48.4,69.4,66.4,32.7,42.6,36.6,> 100,31.5,46.7,> 100,41.8,41.3,77.6,52.7,71.5,> 100,> 100,> 100,
O=C(N/N=C/c1cc(Br)cc(Br)c1[O-])c1ccccc1O.O=C(N/N=C/c1cc(Br)cc(Br)c1[O-])c1ccccc1O.[Co+2],,10.3,7.39,14.4,12.9,12.6,10.5,3.15,20.4,3.6,13.9,5.4,17.7,18.5,6.13,11.1,5.93,28.4,14.1,
O=C(CC(Cl)=C(Cl)Cl)c1ccccc1,30.4,> 100,72.5,70.6,32.1,> 100,,> 100,78.9,81.4,> 100,> 100,> 100,> 100,> 100,> 100,53.6,> 100,> 100,41.9
c1ccc([I+]c2ccccc2)cc1,> 100,> 100,> 100,> 100,> 100,> 100,> 100,> 100,> 100,> 100,> 100,> 100,> 100,> 100,> 100,> 100,> 100,> 100,> 100,> 100
CC1=CC2c3cccc4[nH]cc(c34)CC2N(C)C1 (stereo unspecified),> 100,30.8,> 100,> 100,> 100,> 100,86,> 100,> 100,> 100,> 100,> 100,> 100,> 100,> 80.7,> 100,> 100,> 100,,> 100
BrCC[N+]12CC[N+](CCBr)(CC1)C2,> 100,> 100,> 100,> 100,> 100,> 100,> 100,> 100,> 100,> 100,> 100,> 100,> 100,> 100,> 100,> 100,> 100,> 100,> 100,> 100
O=C(O)C1CCCCN1c1ccccc1[N+](=O)[O-] (stereo unspecified),> 100,> 100,> 100,> 100,> 100,> 100,> 100,> 100,,> 100,> 100,> 100,> 100,> 100,> 100,> 100,> 100,> 100,> 100,> 100
CC(Cl)CC(=O)OCC1CCCN2CCCCC12 (stereo unspecified),> 100,> 100,> 100,> 100,> 100,> 100,> 100,> 100,> 100,> 100,> 100,> 100,> 100,> 100,> 100,> 100,> 100,> 100,> 100,> 100
Cc1ccc2c(=O)c3ccccc3sc2c1,> 100,> 100,> 100,,> 100,,> 100,> 100,> 100,> 100,> 100,,> 100,> 100,,> 100,> 100,> 100,> 100,> 100
CCC1NC(N=Nc2ccc([N+](=O)[O-])cc2)(P(=O)(OC(C)C)OC(C)C)OC1=O (stereo unspecified),> 100,> 100,,,,> 100,> 100,> 100,> 100,> 100,> 100,> 100,> 100,> 100,> 100,> 100,> 100,> 100,> 100,> 100
O=C(Nc1ccc(Cl)cc1)c1cc(S(=O)(=O)Nc2nnc3c(Cl)cc(C(F)(F)F)cn23)c(S)cc1Cl,> 100,> 100,> 100,> 100,,> 100,> 100,> 100,> 100,> 100,> 100,74.6,> 100,> 100,> 100,> 100,> 100,> 100,> 100,> 100
CCn1cnnc1-c1nsc2ccccc12,> 100,> 100,,> 100,> 100,,> 100,> 100,> 100,> 100,> 100,> 100,> 100,,> 100,92.2,,> 100,> 100,> 100
C[C@@H]1CC[C@@]2(OC1)O[C@H]1C[C@H]3[C@@H]4CC[C@H]5C[C@@H](OC6OC(CO)C(OC7OC(CO)C(O)C(OC8OCC(O)C(O)C8O)C7OC7OC(CO)C(O)C(O)C7O)C(O)C6O)[C@H](O)C[C@]5(C)[C@H]4CC[C@]3(C)[C@H]1[C@@H]2C (stereo partly specified),1.53,2.94,23.9,> 33.9,7.89,13.4,24.7,4.62,22,9.56,23.7,24.8,13.3,30.8,66.5,18.9,12.5,27.1,> 100,30.1
CC(=O)Nc1cccc(N=NN(C)C)c1,> 100,> 100,> 100,> 100,> 100,> 100,> 100,> 100,> 100,> 100,> 100,> 100,> 100,> 100,> 100,> 100,> 100,> 100,,> 100
CN(Cc1cnc2c(N)nc(N)nc2n1)c1ccc(Cl)cc1,> 100,> 100,32.5,> 100,,> 100,,,> 100,> 100,> 100,> 100,,> 100,,> 100,> 100,> 100,> 100,> 100
